Data published in patent US20110003017A1, “Method for Preparation of Extract from Angelica Gigas Nakai and Composition Containing the Extract” (AZI Co., Ltd., priority 2007, published 2011).

Assay: antioxidant effects (electron donating ability) using DPPH
Format: biochemical
Settings: DPPH radical scavenging, absorbance at 520 nm
Description: The antioxidant effects were determined using 1,1-diphenyl-2-picryl hydrazyl (DPPH). Analysis of the extract using DPPH is performed by the following method.
DPPH having radicals is mostly used for determining radical scavenging performance. DPPH was purchased from Sigma. The following procedures were carried out:
1) 2 ml of 0.1 mM […] (Sigma, D-9132) in ethanol was added to 2 ml of a sample dissolved in ethanol;
2) After mixing the solution for 10 minutes, the mixture was left in a dark place;
3) Absorbance of the resultant product at 520 nm was measured;
4) Calculation of antioxidant efficacy (electron donating ability),
EDA (electron donating ability)=(Cabs−Sabs)/Cabs*100
wherein • Cabs: absorbance of a negative control (which contains ethanol only instead of a sample), • Sabs: absorbance of a sample, and • Positive control: Vitamin E (Fluka, 95240) as a sample.
Antioxidant effects were compared between both extract powders obtained in Examples 1 and 2. Using DPPH analyzed and quantified EDA to determine the antioxidant effects of the extract powder. IC50 means a concentration required for scavenging 50% of radicals and it is determined that the antioxidant effects are enhanced as IC50 value is lowered.

IC50 (concentration required for scavenging 50% of radicals): 15 mg/L
Substance: Vitamin E
